Test results published in patent publication US20130029942A1, “COMPOUNDS AND THERAPEUTICAL USES THEREOF” (Myrexis, Inc., priority 2003, published 2013).

test system: T-47D cells; experiment: Caspase cascade activation / induction of apoptosis in T-47D cells (fluorogenic N-(Ac-DEVD)-N'-ethoxycarbonyl-R110 substrate); assay type: cell-based, human; conditions: Homo sapiens, T47D, 24 h, read-out: T-47D (24 hr) EC50 (nM)

In the case of `[2H]c1c([2H])c(N(C)c2nc(C)nc3ccccc23)c([2H])c([2H])c1OC` [Example 108, (4-Methoxy-phenyl-2,3,5,6-d4)-(2-methyl-quinazolin-4-yl)-methyl-amine], the EC50 is reported as 1 nM.

same assay, conditions: Homo sapiens, T47D; T-47D, 24 hr; read-out: T-47D (24 hr) EC50

Compared with `Cc1nc(N(C)c2ccc(N=[N+]=[N-])cc2)c2ccccc2n1` [Example 102, (4-Azido-phenyl)-(2-methyl-quinazolin-4-yl)-methyl-amine], `Cc1nc(N(C)c2ccc(F)cc2)c2ccccc2n1` [Example 124, (4-Fluoro-phenyl)-(2-methyl-quinazolin-4-yl)-methyl-amine] is 82-fold higher in EC50: 5 nM for the first, 408 nM for the second. The first is the more potent here.

First: COc1ccc(N(C)c2nc(C)nc3ccccc23)cc1F [Example 85, (3-Fluoro-4-methoxy-phenyl)-(2-methyl-quinazolin-4-yl)-methyl-amine]
Second: COc1ccc(Nc2nc(C)nc3ccccc23)cc1F [Example 79, (3-Fluoro-4-methoxy-phenyl)-(2-methyl-quinazolin-4-yl)-amine]
The EC50 of the first is lower: 2 nM for the first, over 10000 nM for the second. The first is the more potent here.

First: COc1ccc(N(C)c2nc(CN(C)C)nc3ccccc23)cc1 [Example 77, (2-Dimethylaminomethyl-quinazolin-4-yl)-(4-methoxy-phenyl)-methyl-amine]
Second: COc1ccc(N(C)c2nc(CO)nc3ccccc23)cc1 [Example 76]
The EC50 of the first is 100-fold higher: 700 nM for the first, 7 nM for the second. The second is the more potent here.

`C[C@H]1CC[C@@H](Nc2nc(Cl)nc3ccccc23)CC1` [Example 130, (2-Chloro-quinazolin-4-yl)-(cis-4-methylcyclohexyl)-amine] and `CN(c1nc(Cl)nc2ccccc12)[C@H]1CC[C@@H](C)CC1` [Example 132, (2-Chloro-quinazolin-4-yl)-(cis-4-methylcyclohexyl)-methyl-amine] cannot be ordered by EC50: over 10000 nM for the first, over 10000 nM for the second.

First: CNc1nc(N(C)c2ccc(OC)cc2)c2ccccc2n1 [Example 123, (2-Methylamino-quinazolin-4-yl)-(4-methoxy-phenyl)-methyl-amine]
Second: CCOc1ccc(N(C)c2nc(C)nc3ccccc23)cc1 [Example 107, (4-Ethoxy-phenyl)-(2-methyl-quinazolin-4-yl)-methyl-amine]
The EC50 of the first is 1.6-fold higher: 8 nM for the first, 5 nM for the second.

`COc1ccc(Nc2nc(Cl)nc3ccccc23)cn1` [Example 28, (2-Chloro-quinazolin-4-yl)-(6-methoxy-pyridin-3-yl)-amine] and `Cc1ccc(Nc2nc(Cl)nc3ccccc23)cc1` [Example 8, (2-Chloro-quinazolin-4-yl)-(4-methyl-phenyl)-amine] cannot be ordered by EC50: over 10000 nM for the first, over 10000 nM for the second.

First: Cc1nc(N(C)c2ccc(C(=O)ON3C(=O)CCC3=O)cc2)c2ccccc2n1 [Example 119, Succinimidyl 4-(N-Methyl-N-(2-methylquinazolin-4-yl)amino)benzoic acid ester]
Second: Cc1nc(N(C)c2ccc(OC(F)F)cc2)c2ccccc2n1 [Example 84, (4-Difluoromethoxy-phenyl)-(2-methyl-quinazolin-4-yl)-methyl-amine]
The EC50 of the first is 540-fold higher: 4290 nM for the first, 8 nM for the second. The second is the more potent here.

Going from `COc1c(Br)cc(N(C)c2nc(C)nc3ccc([N+](=O)[O-])cc23)cc1Br` [Example 115, (3,5-Dibromo-4-methoxy-phenyl)-(2-methyl-6-nitro-quinazolin-4-yl)-methyl-amine] to `COc1ccc(N(C)c2nc(C)nc3ccc(N)cc23)cc1` [Example 110, (6-Amino-2-methyl-quinazolin-4-yl)-(4-methoxy-phenyl)-methyl-amine], the EC50 falls from over 10000 nM to 7 nM.

Compared with `COc1ccc(N(C)c2nc(NCCc3c[nH]cn3)nc3ccccc23)cc1` [Example 46, N^2-[2-(1H-Imidazol-4-yl)-ethyl]-N^4-(4-methoxy-phenyl)-N^4-methyl-quinazoline-2,4-diamine], `COc1ccc(N(C)c2nc(C)nc3ncccc23)cc1` [Example 92, (4-Methoxy-phenyl)-(2-methyl-pyrido[2,3-d]pyrimidin-4-yl)-methyl-amine] is 140-fold lower in EC50: 2180 nM for the first, 16 nM for the second.

Compared with `CN(c1ccc(Cl)cc1)c1nc(N(C)c2ccc(Cl)cc2)c2ccccc2n1` [Example 19, N^2,N^4-Bis(4-chloro-phenyl)-N^2,N^4-dimethyl-quinazoline-2,4-diamine], `CC(C)=CCC/C(C)=C/CNc1nc(N(C)c2ccc(C)cc2)c2ccccc2n1` [Example 16, N^2-(3,7-Dimethyl-octa-2,6-dienyl)-N^4-(4-methyl-phenyl)-N^4-methyl-quinazoline-2,4-diamine] is lower in EC50: over 10000 nM for the first, 296 nM for the second.

Compared with `COc1ccc(N(c2nc(Cl)nc3ccccc23)C2CCCCC2)cc1` [Example 38, (2-Chloro-quinazolin-4-yl)-cyclohexyl-(4-methoxy-phenyl)-amine], `COc1ccc(N(C)c2nc(C)nc3cc(N=[N+]=[N-])ccc23)cc1` [Example 114, (7-Azido-2-methyl-quinazolin-4-yl)-(4-methoxy-phenyl)-methyl-amine] is 23-fold lower in EC50: 2930 nM for the first, 130 nM for the second.

`CCc1ccc(Nc2nc(C)nc3ccccc23)cc1` [Example 81, (4-Ethyl-phenyl)-(2-methyl-quinazolin-4-yl)-amine] and `Cc1nc(Nc2ccc(O)cc2)c2ccccc2n1` [Example 127, (4-hydroxy-phenyl)-(2-methyl-quinazolin-4-yl)-amine] cannot be ordered by EC50: over 10000 nM for the first, over 10000 nM for the second.

Compared with `COc1cc(OC)c(N(C)c2nc(C)nc3ccccc23)c(OC)c1` [Example 88, (2-Methyl-quinazolin-4-yl)-(2,4,6-trimethoxy-phenyl)-methyl-amine], `Cc1nc(N(C)c2cnccn2)c2ccccc2n1` [Example 134, (2-Methyl-quinazolin-4-yl)-(pyrazin-2-yl)-methyl-amine] is higher in EC50: 556 nM for the first, over 10000 nM for the second.

`Cc1nc(Nc2ccncc2)c2ccccc2n1` [Example 135, (2-Methyl-quinazolin-4-yl)-(pyridin-4-yl)-amine] and `COc1ccc(Nc2nc(C)nc3ccccc23)nc1` [Example 137, (5-Methoxy-pyridin-2-yl)-(2-methyl-quinazolin-4-yl)-amine] cannot be ordered by EC50: over 10000 nM for the first, over 10000 nM for the second.

Going from `COc1ccc(N(C)c2nc(NCCN3CCOCC3)nc3cc(OC)c(OC)cc23)cc1` [Example 23, 6,7-Dimethoxy-N^4-(4-methoxy-phenyl)-N^4-methyl-N^2-(2-morpholin-4-yl-ethyl)-quinazoline-2,4-diamine] to `COc1ccc(N(C)c2nc(N)nc3[nH]cnc23)cc1` [Example 17, N^6-(4-Methoxy-phenyl)-N^6-methyl-9H-purine-2,6-diamine], the EC50 falls from over 10000 nM to 7940 nM.

same assay, conditions: Homo sapiens, T47D; T-47D, 48 hr; benzohydrazide table; read-out: T-47D (48 hr) EC50

`CN(NC(=O)c1ccccc1F)c1nc(C(F)(F)F)nc2ccccc12` and `CSc1nc(N(C)NC(=O)c2ccccc2)c2ccccc2n1` are within 1.5-fold of each other in EC50: 184 nM for the first, 149 nM for the second.

same assay, conditions: Homo sapiens, T47D; T-47D, 48 hr; read-out: T-47D (48 hr) EC50

Going from `CCN(c1ccc(OC)cc1)c1nc(Cl)nc2ccccc12` [Example 40, (2-Chloro-quinazolin-4-yl)-ethyl-(4-methoxy-phenyl)-amine] to `COc1ccc(N(c2nc(Cl)nc3ccccc23)C2CCCC2)cc1` [Example 45, (2-Chloro-quinazolin-4-yl)-cyclopentyl-(4-methoxy-phenyl)-amine], the EC50 rises from 47 nM to over 10000 nM. The first is the more potent here.

First: Cc1nc(N(C)c2ccc(N=[N+]=[N-])cc2)c2ccccc2n1 [Example 102, (4-Azido-phenyl)-(2-methyl-quinazolin-4-yl)-methyl-amine]
Second: COc1ccc(N(C)c2nc(CO)nc3ccccc23)cc1 [Example 76]
The EC50 of the first is 2-fold higher: 16 nM for the first, 8 nM for the second.

Compared with `COc1ccc(N(C)c2nc(Cl)nc3c(C)cccc23)cc1` [Example 59, (2-Chloro-8-methyl-quinazolin-4-yl)-(4-methoxy-phenyl)-methyl-amine], `COc1ccc(N(C)c2nc(Cl)nc3c(Cl)cccc23)cc1` [Example 89, (2,8-Dichloro-quinazolin-4-yl)-(4-methoxy-phenyl)-methyl-amine] is 2.2-fold higher in EC50: 11 nM for the first, 24 nM for the second.

First: CN(c1ccc2c(c1)OCO2)c1nc(Cl)nc2ccccc12 [Example 67, (2-Chloro-quinazolin-4-yl)-(3,4-methylenedioxyphenyl)-methyl-amine]
Second: COc1ccc(N(C)c2nc(Cl)nc3ccccc23)cc1OC [Example 68, (2-Chloro-quinazolin-4-yl)-(3,4-dimethoxy-phenyl)-methyl-amine]
The EC50 of the first is 9.5-fold higher: 38 nM for the first, 4 nM for the second. The second is the more potent here.

First: COc1ccc(N(C)c2nc(CN(C)C)nc3ccccc23)cc1 [Example 77, (2-Dimethylaminomethyl-quinazolin-4-yl)-(4-methoxy-phenyl)-methyl-amine]
Second: COc1ccc(N(C)c2nc(Cl)nc3cc(C)ccc23)cc1 [Example 57, (2-Chloro-7-methyl-quinazolin-4-yl)-(4-methoxy-phenyl)-methyl-amine]
The EC50 of the first is 4.9-fold higher: 2110 nM for the first, 432 nM for the second. The second is the more potent here.

Going from `COc1ccc(N(C)c2nc(Cl)nc3cc(Cl)ccc23)cc1` [Example 62, (2,7-Dichloro-quinazolin-4-yl)-(4-methoxy-phenyl)-methyl-amine] to `COc1ccc(N(C)c2nc(Cl)nc3ccc(Cl)cc23)cc1` [Example 60, (2,6-Dichloro-quinazolin-4-yl)-(4-methoxy-phenyl)-methyl-amine], the EC50 falls from 316 nM to 13 nM (24-fold).

First: COc1ccc(N(C)c2nc(Cl)nc3[nH]cnc23)cc1 [Example 51, (2-Chloro-9H-purin-6-yl)-(4-methoxy-phenyl)-methyl-amine]
Second: COc1ccc(N(C)c2nc(Cl)nc3cccc(C)c23)cc1 [Example 58, (2-Chloro-5-methyl-quinazolin-4-yl)-(4-methoxy-phenyl)-methyl-amine]
The EC50 of the first is higher: over 10000 nM for the first, 1 nM for the second. The second is the more potent here.

`COc1ccc(Nc2nc(Cl)nc3ccccc23)cn1` [Example 28, (2-Chloro-quinazolin-4-yl)-(6-methoxy-pyridin-3-yl)-amine] and `COc1cccc(Nc2nc(Cl)nc3ccccc23)c1` [Example 32, (2-Chloro-quinazolin-4-yl)-(3-methoxy-phenyl)-amine] cannot be ordered by EC50: over 10000 nM for the first, over 10000 nM for the second.

`COc1ccc(Oc2ncnc3ccccc23)cc1` [Example 71, 4-(4-Methoxy-phenoxy)-quinazoline] and `COc1ccc(N(C)c2nc(NCCc3c[nH]cn3)nc3ccccc23)cc1` [Example 46, N^2-[2-(1H-Imidazol-4-yl)-ethyl]-N^4-(4-methoxy-phenyl)-N^4-methyl-quinazoline-2,4-diamine] are within 1.5-fold of each other in EC50: 2260 nM for the first, 2270 nM for the second.

First: CN(c1ccc(Cl)cc1)c1nc(N(C)c2ccc(Cl)cc2)c2ccccc2n1 [Example 19, N^2,N^4-Bis(4-chloro-phenyl)-N^2,N^4-dimethyl-quinazoline-2,4-diamine]
Second: COc1ccc(N(C)c2nc(N(C)c3ccc(OC)cc3)c3c(Cl)cccc3n2)cc1 [Example 63, 5-Chloro-N^2,N^4-bis-(4-methoxy-phenyl)-N^2,N^4-dimethyl-quinazoline-2,4-diamine]
The EC50 of the first is higher: over 10000 nM for the first, 427 nM for the second.

First: COc1cccc(Nc2nc(Cl)nc3ccccc23)c1OC [Example 29, (2-Chloro-quinazolin-4-yl)-(2,3-dimethoxy-phenyl)-amine]
Second: COC(=O)c1ccc(N(C)c2nc(Cl)nc3ccccc23)cc1 [Example 52, (2-Chloro-quinazolin-4-yl)-(4-methylcarboxyphenyl)-methyl-amine]
The EC50 of the first is higher: over 10000 nM for the first, 6 nM for the second.

`COc1ccc(N(C)c2nc(OC(C)C)nc3cccc(Cl)c23)cc1` [Example 64, (5-Chloro-2-isopropoxy-quinazolin-4-yl)-(4-methoxy-phenyl)-methyl-amine] and `COc1ccc(N(C)c2nc(NCCN3CCOCC3)nc3cc(OC)c(OC)cc23)cc1` [Example 23, 6,7-Dimethoxy-N^4-(4-methoxy-phenyl)-N^4-methyl-N^2-(2-morpholin-4-yl-ethyl)-quinazoline-2,4-diamine] cannot be ordered by EC50: over 10000 nM for the first, over 10000 nM for the second.

same assay, conditions: T-47D, 48 hr; benzohydrazide table

Compared with `CN(NC(=O)c1ccccc1F)c1nc(C(F)(F)F)nc2ccccc12`, `CSc1nc(N(C)NC(=O)c2ccccc2)c2ccccc2n1` is higher in “T-47D (48 hr) Ratio” value: 13.7 for the first, 14.7 for the second.
